This note sets out measurements from patent publication EP0908457B1, “3-(1,2-benzisothiazol- and isoxazol-5-Y1)-2,4(1H,3H)-pyrimidinedione or thione and 3-(1,2-benzisothiazol- and isoxazol-5-y1)-4(3H)-pyrimidinone or thione herbicidal agents” (BASF AKTIENGESELLSCHAFT, priority 1997, dated 1999).

SMILES strings stand for the structures.

In data set [1] the test system is Echinochloa oryzoides (Ard.) Fritsch. Put plainly: Preemergence weed control under flooded paddy conditions, ECHORC (Watergrass (Calif.)). For herbicidal effect rating, ECHORC: meaning of each grade not given here. The note with it: preemergence, flooded paddy, rated three to four weeks after treatment. Format: in vivo.
Data set [2] has as its system Cyperus iria. Put plainly: Preemergence weed control under flooded paddy conditions, CYPIR (Rice Flatsedge). For herbicidal effect rating, CYPIR: meaning of each grade not given here. In kind it is in vivo. The note with it: preemergence, flooded paddy, rated three to four weeks after treatment.
The subject of data set [3] is Cyperus serotinus, Rottb. Put plainly: Preemergence weed control under flooded paddy conditions, CYPSE (Flatsedge). For herbicidal effect rating, CYPSE: meaning of each grade not given here. Format: in vivo. The note with it: preemergence, rated three to four weeks after treatment.
The subject of data set [4] is Monochoria vaginalis, Presl. Put plainly: Preemergence weed control under flooded paddy conditions, MOOVA (Monochoria). For herbicidal effect rating, MOOVA: meaning of each grade not given here. In kind it is in vivo. The note with it: preemergence, flooded paddy, rated three to four weeks after treatment.
Data set [5] concerns Sagittaria pygmaea, L. Put plainly: Preemergence weed control under flooded paddy conditions, SAGPY (Arrowhead (Pygmaea)). For herbicidal effect rating, SAGPY: meaning of each grade not given here. In kind it is in vivo. The note with it: preemergence, flooded paddy, rated three to four weeks after treatment.
Data set [6] deals with Oryza sativa, (L.) Tebonnet. Put plainly: Rice tolerance to post-transplant applications under flooded paddy conditions (Example 187), ORYSAT (Rice, Tebonnet). For herbicidal effect rating ORYSAT: meaning of each grade not given here. The note with it: rated three to four weeks after treatment.

On to `COC(=O)C(C)Oc1ccc(-c2nsc3ccc(-n4c(=O)cc(C(F)(F)F)n(C)c4=O)cc23)cc1` (stereo not drawn) [Example 258, Propionic acid, 2-{p-{5-[3,6-dihydro-3-methyl-2,6-dioxo-4-(trifluoromethyl)-1(2H)-pyrimidinyl]-1,2-benzisothiazol-3-yl}phenoxy}-, methyl ester], for which the “ECHORC herbicidal effect rating” value in data set [1] (Rate 0.0320 kg/ha), in data set [1] (Rate 0.0620 kg/ha), in data set [1] (Rate 0.1250 kg/ha) and in data set [1] (Rate 0.2500 kg/ha) was 0.0 in each case. For the same compound, the “CYPIR herbicidal effect rating” value in data set [2] (Rate 0.0320 kg/ha) came to 0.0; in data set [2] (Rate 0.0620 kg/ha), 2.0; in data set [2] (Rate 0.1250 kg/ha), 7.0; in data set [2] (Rate 0.2500 kg/ha), 8.0. For the same compound, the “CYPSE herbicidal effect rating” value in data set [3] (Rate 0.0320 kg/ha), in data set [3] (Rate 0.0620 kg/ha) and in data set [3] (Rate 0.1250 kg/ha) was 0.0 in each case. Moreover, the “MOOVA herbicidal effect rating” value in data set [4] (Rate 0.0320 kg/ha), in data set [4] (Rate 0.0620 kg/ha), in data set [4] (Rate 0.1250 kg/ha) and in data set [4] (Rate 0.2500 kg/ha) was 9.0 in each case. Besides, the “SAGPY herbicidal effect rating” value in data set [5] (Rate 0.0320 kg/ha), in data set [5] (Rate 0.0620 kg/ha), in data set [5] (Rate 0.1250 kg/ha) and in data set [5] (Rate 0.2500 kg/ha) was 0.0 each time. Also, the “ORYSAT herbicidal effect rating” value in data set [6] (Rate 0.0320 kg/ha) is reported as 2.0; in data set [6] (Rate 0.0620 kg/ha), 2.0; in data set [6] (Rate 0.1250 kg/ha), 3.0; in data set [6] (Rate 0.2500 kg/ha), 4.0.
With `CCS(=O)(=O)NC(=O)c1nsc2ccc(-n3c(=O)cc(C(F)(F)F)n(C)c3=O)cc12` [Example 383, 1,2-Benzisothiazole-3-carboxamide, 5-[3,6-dihydro-3-methyl-2,6-dioxo-4-(trifluoromethyl)-1(2H)-pyrimidinyl]-N-(ethylsulfonyl)-], the “herbicidal effect rating, ECHORC” value is reported as 4.0 in data set [1] (Rate 0.0320 kg/ha), 6.5 in data set [1] (Rate 0.0620 kg/ha), 7.5 in data set [1] (Rate 0.1250 kg/ha) and 8.0 in data set [1] (Rate 0.2500 kg/ha). Further, the “herbicidal effect rating, CYPIR” value is reported as 2.5 in data set [2] (Rate 0.0320 kg/ha), 7.0 in data set [2] (Rate 0.0620 kg/ha), 7.0 in data set [2] (Rate 0.1250 kg/ha) and 8.0 in data set [2] (Rate 0.2500 kg/ha). For the same compound, the “herbicidal effect rating, CYPSE” value in data set [3] (Rate 0.0320 kg/ha) turned out to be 4.5; in data set [3] (Rate 0.0620 kg/ha), 5.5; in data set [3] (Rate 0.1250 kg/ha) it was 7.5; in data set [3] (Rate 0.2500 kg/ha) it was 9.0. Moreover, the “herbicidal effect rating, MOOVA” value in data set [4] (Rate 0.0320 kg/ha), in data set [4] (Rate 0.0620 kg/ha), in data set [4] (Rate 0.1250 kg/ha) and in data set [4] (Rate 0.2500 kg/ha) was 9.0 in each case. Besides, the “herbicidal effect rating, SAGPY” value in data set [5] (Rate 0.0320 kg/ha) is recorded as 3.0; in data set [5] (Rate 0.0620 kg/ha) it was 7.5; in data set [5] (Rate 0.1250 kg/ha) it was 9.0; in data set [5] (Rate 0.2500 kg/ha), 9.0. The “herbicidal effect rating ORYSAT” value in data set [6] (Rate 0.0320 kg/ha) turned out to be 3.5; in data set [6] (Rate 0.0620 kg/ha), 4.5; in data set [6] (Rate 0.1250 kg/ha), 6.0; in data set [6] (Rate 0.2500 kg/ha) it was 6.5.
For `COC(=O)COc1ccc(C)cc1-c1nsc2ccc(-n3c(=O)cc(C)n(C)c3=O)cc12` [Example 38, Methyl {{2-[5-(3,6-dihydro-3,4-dimethyl-2,6-dioxo-1(2H)-pyrimidinyl)-1,2-benzisothiazol-3-yl]-p-tolyl}oxy}acetate], the “herbicidal effect rating, ECHORC” value was found to be 0.0 in data set [1] (0.0313 kg/ha), 0.0 in data set [1] (0.0625 kg/ha), 1.0 in data set [1] (0.1250 kg/ha) and 2.0 in data set [1] (0.2500 kg/ha). For the same compound, the “herbicidal effect rating, CYPIR” value in data set [2] (0.0313 kg/ha), in data set [2] (0.0625 kg/ha), in data set [2] (0.1250 kg/ha) and in data set [2] (0.2500 kg/ha) was 0.0 in each case. The “herbicidal effect rating, CYPSE” value in data set [3] (0.0313 kg/ha), in data set [3] (0.0625 kg/ha), in data set [3] (0.1250 kg/ha) and in data set [3] (0.2500 kg/ha) was 0.0 throughout. For the same compound, the “herbicidal effect rating, MOOVA” value in data set [4] (0.0313 kg/ha), in data set [4] (0.0625 kg/ha), in data set [4] (0.1250 kg/ha) and in data set [4] (0.2500 kg/ha) was 0.0 throughout. The “herbicidal effect rating, SAGPY” value in data set [5] (0.0313 kg/ha), in data set [5] (0.0625 kg/ha), in data set [5] (0.1250 kg/ha) and in data set [5] (0.2500 kg/ha) was 0.0 in each case. Moreover, the “herbicidal effect rating, ORYSAT (rice tolerance)” value in data set [6] (0.0313 kg/ha), in data set [6] (0.0625 kg/ha), in data set [6] (0.1250 kg/ha) and in data set [6] (0.2500 kg/ha) was 0.0 in each case.
In the case of `Cn1c(C(F)(F)F)cc(=O)n(-c2ccc3snc(CSCC(=O)O)c3c2)c1=O` [Example 283, Acetic acid, {{{5-[3,6-dihydro-3-methyl-2,6-dioxo-4-(trifluoromethyl)-1(2H)-pyrimidinyl]-1,2-benzisothiazol-3-yl}methyl}thio}-], the “ECHORC herbicidal effect rating” value in data set [1] (Rate 0.0320 kg/ha) was 0.0; in data set [1] (Rate 0.0620 kg/ha) it was 3.4; in data set [1] (Rate 0.1250 kg/ha), 3.4; in data set [1] (Rate 0.2500 kg/ha) it was 6.0; in data set [1] (Rate 0.5000 kg/ha) it was 6.0. Besides, the “CYPIR herbicidal effect rating” value is on record as 0.0 in data set [2] (Rate 0.0320 kg/ha); 4.0 in data set [2] (Rate 0.0620 kg/ha); 8.0 in data set [2] (Rate 0.1250 kg/ha); 9.0 in data set [2] (Rate 0.2500 kg/ha); 9.0 in data set [2] (Rate 0.5000 kg/ha). For the same compound, the “CYPSE herbicidal effect rating” value in data set [3] (Rate 0.5000 kg/ha) is recorded as 0.0. The “MOOVA herbicidal effect rating” value in data set [4] (Rate 0.0320 kg/ha) was found to be 2.0; in data set [4] (Rate 0.0620 kg/ha) it was 8.0; in data set [4] (Rate 0.1250 kg/ha), 9.0; in data set [4] (Rate 0.2500 kg/ha), 9.0; in data set [4] (Rate 0.5000 kg/ha), 9.0. For the same compound, the “SAGPY herbicidal effect rating” value in data set [5] (Rate 0.0320 kg/ha) is on record as 0.0; in data set [5] (Rate 0.0620 kg/ha), 0.0; in data set [5] (Rate 0.1250 kg/ha) it was 0.0; in data set [5] (Rate 0.5000 kg/ha), 9.0. Also, the “ORYSAT herbicidal effect rating” value was 2.0 in data set [6] (Rate 0.0320 kg/ha); 2.0 in data set [6] (Rate 0.0620 kg/ha); 4.0 in data set [6] (Rate 0.1250 kg/ha); 5.0 in data set [6] (Rate 0.2500 kg/ha); 4.0 in data set [6] (Rate 0.5000 kg/ha).
For the compound `COC(=O)CS(=O)(=O)Cc1nsc2ccc(-n3c(=O)cc(C(F)(F)F)n(C)c3=O)cc12` [Example 272, Acetic acid, {{{5-[3,6-dihydro-3-methyl-2,6-dioxo-4-(trifluoromethyl)-1(2H)-pyrimidinyl]-1,2-benzisothiazol-3-yl}methyl}sulfonyl}-, methyl ester], the “ECHORC herbicidal effect rating” value in data set [1] (Rate 0.5000 kg/ha) is 0.0. The “CYPIR herbicidal effect rating” value in data set [2] (Rate 0.5000 kg/ha) stood at 0.0. Also, in data set [3] (Rate 0.5000 kg/ha), the “CYPSE herbicidal effect rating” value is recorded as 0.0. Further, the “MOOVA herbicidal effect rating” value in data set [4] (Rate 0.5000 kg/ha) turned out to be 0.0. In data set [5] (Rate 0.5000 kg/ha), the “SAGPY herbicidal effect rating” value was determined as 0.0. In data set [6] (Rate 0.5000 kg/ha), the “ORYSAT herbicidal effect rating” value is reported as 0.0.
